Data: patent publication US9364479B2, “Use of a receptor-type kinase modulator for treating polycystic kidney disease” (SYMPHONY EVOLUTION, INC., priority 2010, dated 2016)
Marks after values point to notes of the source that are not given here.

Columns and labels:
EGFR WT (pCMV/Lx-1) = EGFR WT (pCMV/Lx-1) (Homo sapiens, UniProt P00533); experiment: EGFR phosphorylation ELISA in transfected Lx-1 cells
Excerpt: (§2) Lx-1 cells were used because they lack background EGFR activity. A clone corresponding to the longest EGFR isoform (Genbank accession no. NM_005228.3/NP_005219.2 #21-176, Upstate Biotechnology) was used as a template to produce two mutant EGFR genes (coding for L858R and L861Q) by site-directed mutagenesis. The WT and the two sequence-verified mutants were transferred to a COOH-terminal Flag-tagged retroviral cytomegalovirus promoter-driven mammalian expression vector. The two Tet-On expression vectors, EGFR WT (Tet-On) and EGFRvIII (Tet-On), which were COOH-terminally Flag tagged, were generously provided by Dr. Abhijit Guha (University of Toronto, Toronto, Ontario, Canada).
(§3) Transient transfections of Lx-1 cells were done using Lipofectamine 2000 (Invitrogen) according to the manufacturer's protocol. For transfections of the WT, L858R, and L861Q constructs, 1 μg plasmid DNA was used for each transfection (each well of a 12-well plate). […]
(§4) For the EGFR phosphorylation ELISA, Reacti-Bind streptavidin-coated plates (Pierce) were coated with 2 μg/mL biotin-conjugated anti-Flag antibody (Sigma). […] Horseradish peroxidase activity was determined by reading the plates in a Victor2 plate reader following addition of the ELISA Femto substrate.

[1] = molecular target: T1, Angiotensin II, AT1 (Human) (Homo sapiens, UniProt P30556); experiment: NovaScreen assay; assay type: binding; settings: read-out: Inhibition, 10 μM XL-647
T1 construct: NovaScreen

[2] = test system: Calcium Channel, Type L (Dihydropyridine Site); experiment: NovaScreen assay; assay type: binding
Galanin, Non-Selective = experiment: NovaScreen assay; assay type: binding
[3] = molecular target: T2, Glutamate, NMDA, Glycine (Stry-insens Site) (Homo sapiens, UniProt Q05586); experiment: NovaScreen assay; assay type: binding; settings: read-out: Inhibition, 10 μM XL-647
T2 construct: NovaScreen

PKBα = PKBα (Homo sapiens, UniProt P31749); experiment: In vitro kinase inhibition screen; assay type: biochemical
Protocol: (§1) Further screening was performed using the biochemical assay methods of Example 2. Additional description of the components and concentrations are summarized in Table 8, Table 9, and Table 10, below.

MAPK2 = MAPK2 (Homo sapiens, UniProt P28482); experiment: In vitro kinase inhibition screen; assay type: biochemical
Protocol: as §1

JNK2α = JNK2α (Homo sapiens, UniProt P45984); experiment: In vitro kinase inhibition screen; assay type: biochemical
Protocol: as §1

PKC-ξ = molecular target: T3, PKC-ξ; experiment: In vitro kinase inhibition screen; assay type: biochemical
T3 construct: PKC-eta; Human, PanVera
Protocol: as §1

CDK5 = CDK5 (Homo sapiens, UniProt Q00535); experiment: In vitro kinase inhibition screen; assay type: biochemical
Protocol: as §1

JNK1α = JNK1α (Homo sapiens, UniProt P45983); experiment: In vitro kinase inhibition screen; assay type: biochemical
Protocol: as §1

PKC-γ = PKC-γ (Homo sapiens, UniProt P05129); experiment: In vitro kinase inhibition screen; assay type: biochemical
Protocol: as §1

CSK = CSK (Homo sapiens, UniProt P41240); experiment: In vitro kinase inhibition screen; assay type: biochemical
Protocol: as §1

Rsk1 = Rsk1 (Homo sapiens, UniProt Q15418); experiment: In vitro kinase inhibition screen; assay type: biochemical
Protocol: as §1

PKBβ = PKBβ (Homo sapiens, UniProt P31751); experiment: In vitro kinase inhibition screen; assay type: biochemical
Protocol: as §1

Clk2 = Clk2 (Homo sapiens, UniProt P49760); experiment: In vitro kinase inhibition screen; assay type: biochemical
Protocol: as §1

CamKIV = CamKIV (Homo sapiens, UniProt Q16566); experiment: In vitro kinase inhibition screen; assay type: biochemical
Protocol: as §1

p70S6K = p70S6K (Homo sapiens, UniProt P23443); experiment: In vitro kinase inhibition screen; assay type: biochemical
Protocol: as §1

[4] = test system: Muscarinic, Non-selective, Central; experiment: NovaScreen assay; assay type: binding
Vasopressin 1 = molecular target: T4, Vasopressin 1 (Homo sapiens, UniProt P37288); experiment: NovaScreen assay; assay type: binding; settings: read-out: Inhibition, 10 μM XL-647
T4 construct: NovaScreen

[5] = test system: subjects with non-small-cell lung cancer; experiment: Clinical Study XL-647-201 (Phase 2, NSCLC front-line); assay type: in vivo, human; settings: Intermittent 5&9 schedule
Excerpt: Study XL-647-201: Subjects with non-small-cell lung cancer (NSCLC) (n=52) of adenomacarcinoma histology, Stage IIIB, with malignant pleural effusion, or Stage IV previously untreated for metastatic disease were enrolled. Subjects were selected for clinical characteristics predictive of response to EGFR inhibitors (Asian, female, and/or minimal and remote smoking history).

Endothelin, ET-B (Human) = molecular target: T5, Endothelin, ET-B (Human) (Homo sapiens, UniProt P24530); experiment: NovaScreen assay; assay type: binding; settings: read-out: Inhibition, 10 μM XL-647
T5 construct: NovaScreen

Angiotensin II, AT2 = molecular target: T6, Angiotensin II, AT2 (Homo sapiens, UniProt P50052); experiment: NovaScreen assay; assay type: binding; settings: read-out: Inhibition, 10 μM XL-647
T6 construct: NovaScreen

Phospho AKT Ser473 = experiment: Immunohistochemical analysis of phosphorylation in H1975 xenografts; assay type: in vivo, mouse; settings: 14-day dosing
Protocol: For immunohistochemical analysis of H1975, MDA-MB-231 and other xenografts, tumors were excised after euthanasia and fixed in zinc fixative (BD Biosciences) for 48 h before being processed into paraffin blocks. Serial sections at 5 μm were obtained from the area of largest possible surface for each tumor and stained using standard methods. The following antibodies were used: Ki67 (SP6; Labvision), CD31 (MECA.32; BD Biosciences), pERK^Thr202/Tyr204 (phospho-p44/42 mitogen-activated protein kinase; Cell Signaling Technology), pAKT^Ser473 (Cell Signaling Technology), and pEGFR^Tyr1068 (Cell Signaling Technology). For immunofluorescent staining, sections were then incubated with Alexa 594-conjugated goat anti-rabbit secondary antibody (Invitrogen) and mounted in Fluorescent Mounting Medium (DAKO) containing 4′,6-diamidino-2-phenylindole (Molecular Probes) as a nuclear counterstain. Fluorescent staining was visualized using a Zeiss Axiolmager and digitally captured using a Zeiss high-resolution camera coupled to AxioVision image analysis software. Two to three nonoverlapping representative fields were captured at ×200 or ×400 magnification depending on histologic readout and quantified using the integrated morphometric analysis functions in Metamorph software (Universal Imaging Corp.). Apoptotic cells were detected using terminal deoxynucleotidyl transferase-mediated dUTP nick end labeling in situ cell death detection kit according to the manufacturer's instructions (Roche Diagnostics GmbH).
Results are presented as mean±SD or SE as indicated for each graph or table. For IC50 comparison in the A431 cell viability experiment, two sample Student's t tests were applied to determine P values for each IC50 pair assuming that the random fluctuations of replicates around the dose-response curve are distributed [log]normally with the individual replicates used as the ‘sample size’ for the t test (nine point dose response done in triplicate). For statistical analysis of immunohistochemical results from in vivo studies, two-tailed Student's t test analysis and Bonferroni correction were done to identify significant differences compared with vehicle control group (multiple use of a single vehicle control group) with a cumulative minimal requirement of P<0.05.

EGFR WT (pTet-On/Lx-1) = EGFR WT (pTet-On/Lx-1) (Homo sapiens, UniProt P00533); experiment: EGFR phosphorylation ELISA in transfected Lx-1 cells
Excerpt: as §2, §3, §4

Opiate, Non-selective = experiment: NovaScreen assay; assay type: binding

Sequence of p70S6K (P23443 whole entry): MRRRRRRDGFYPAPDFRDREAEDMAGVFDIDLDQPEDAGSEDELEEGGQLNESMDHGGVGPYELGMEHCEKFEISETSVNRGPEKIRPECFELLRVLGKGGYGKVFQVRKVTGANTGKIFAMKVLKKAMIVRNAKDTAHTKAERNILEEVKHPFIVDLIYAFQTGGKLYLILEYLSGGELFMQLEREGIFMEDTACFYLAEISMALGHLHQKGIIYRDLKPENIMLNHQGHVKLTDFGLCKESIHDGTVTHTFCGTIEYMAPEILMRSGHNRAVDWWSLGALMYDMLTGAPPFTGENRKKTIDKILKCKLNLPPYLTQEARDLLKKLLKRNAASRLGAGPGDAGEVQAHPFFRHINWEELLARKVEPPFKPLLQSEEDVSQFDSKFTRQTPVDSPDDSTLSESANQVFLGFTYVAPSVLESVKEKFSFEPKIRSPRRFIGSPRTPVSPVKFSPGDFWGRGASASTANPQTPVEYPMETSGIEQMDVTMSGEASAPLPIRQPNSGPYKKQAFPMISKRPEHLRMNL
Sequence of Rsk1 (Q15418 whole entry, species assumed): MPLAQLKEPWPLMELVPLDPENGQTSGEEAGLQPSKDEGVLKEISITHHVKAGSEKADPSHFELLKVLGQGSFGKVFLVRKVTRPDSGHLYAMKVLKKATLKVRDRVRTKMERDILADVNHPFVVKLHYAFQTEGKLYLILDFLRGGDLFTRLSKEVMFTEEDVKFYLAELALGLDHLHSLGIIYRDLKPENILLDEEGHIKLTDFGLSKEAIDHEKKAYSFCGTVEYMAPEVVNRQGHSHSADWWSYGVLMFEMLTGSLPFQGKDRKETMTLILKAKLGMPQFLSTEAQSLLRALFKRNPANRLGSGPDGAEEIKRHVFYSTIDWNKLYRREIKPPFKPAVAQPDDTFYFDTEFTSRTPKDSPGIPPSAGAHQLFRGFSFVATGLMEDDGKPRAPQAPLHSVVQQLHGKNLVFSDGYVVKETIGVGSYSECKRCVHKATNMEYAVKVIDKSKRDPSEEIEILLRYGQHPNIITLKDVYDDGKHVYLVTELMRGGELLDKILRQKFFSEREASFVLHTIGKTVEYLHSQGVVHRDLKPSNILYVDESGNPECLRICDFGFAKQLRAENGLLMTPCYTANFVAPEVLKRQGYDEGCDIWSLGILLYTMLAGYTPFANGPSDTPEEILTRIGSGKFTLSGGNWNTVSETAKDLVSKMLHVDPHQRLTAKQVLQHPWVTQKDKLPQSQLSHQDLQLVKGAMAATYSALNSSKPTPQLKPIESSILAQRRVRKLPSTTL
Sequence of PKBα (P31749 whole entry, species assumed): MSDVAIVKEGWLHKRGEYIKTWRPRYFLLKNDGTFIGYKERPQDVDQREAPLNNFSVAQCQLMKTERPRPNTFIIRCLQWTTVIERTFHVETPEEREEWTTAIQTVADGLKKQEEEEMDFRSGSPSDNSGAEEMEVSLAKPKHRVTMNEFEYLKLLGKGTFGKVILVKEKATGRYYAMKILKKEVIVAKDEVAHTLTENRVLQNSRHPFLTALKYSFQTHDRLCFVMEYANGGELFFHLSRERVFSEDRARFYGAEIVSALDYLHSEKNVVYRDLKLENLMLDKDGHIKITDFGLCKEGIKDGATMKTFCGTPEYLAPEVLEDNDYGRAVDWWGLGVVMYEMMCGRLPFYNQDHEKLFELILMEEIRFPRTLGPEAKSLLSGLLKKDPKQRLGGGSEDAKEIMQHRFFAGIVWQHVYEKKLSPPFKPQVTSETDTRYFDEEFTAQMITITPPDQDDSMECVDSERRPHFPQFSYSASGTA
T6 sequence (P50052 whole entry): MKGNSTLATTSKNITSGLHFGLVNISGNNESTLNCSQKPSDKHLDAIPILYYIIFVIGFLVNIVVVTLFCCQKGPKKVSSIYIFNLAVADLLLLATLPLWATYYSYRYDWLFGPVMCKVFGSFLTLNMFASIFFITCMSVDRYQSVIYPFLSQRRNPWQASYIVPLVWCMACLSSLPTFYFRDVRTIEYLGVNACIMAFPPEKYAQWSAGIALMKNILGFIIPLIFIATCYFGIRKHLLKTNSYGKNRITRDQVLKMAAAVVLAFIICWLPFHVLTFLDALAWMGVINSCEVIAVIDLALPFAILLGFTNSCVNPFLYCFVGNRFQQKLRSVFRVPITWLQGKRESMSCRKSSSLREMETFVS
Sequence of CamKIV (Q16566 whole entry, species assumed): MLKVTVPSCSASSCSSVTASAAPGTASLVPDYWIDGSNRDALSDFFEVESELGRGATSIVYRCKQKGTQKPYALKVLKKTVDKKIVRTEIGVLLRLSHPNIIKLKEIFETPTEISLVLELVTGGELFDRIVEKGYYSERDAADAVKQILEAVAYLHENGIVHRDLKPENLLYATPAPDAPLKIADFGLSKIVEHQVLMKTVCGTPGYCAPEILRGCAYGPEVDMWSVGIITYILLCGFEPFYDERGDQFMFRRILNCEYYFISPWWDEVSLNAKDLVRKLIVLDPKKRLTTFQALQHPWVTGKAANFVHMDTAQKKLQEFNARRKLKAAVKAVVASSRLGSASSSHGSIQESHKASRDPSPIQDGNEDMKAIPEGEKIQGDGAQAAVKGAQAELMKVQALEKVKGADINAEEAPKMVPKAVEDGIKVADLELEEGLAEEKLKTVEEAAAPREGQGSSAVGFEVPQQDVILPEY
T4 sequence (P37288 whole entry): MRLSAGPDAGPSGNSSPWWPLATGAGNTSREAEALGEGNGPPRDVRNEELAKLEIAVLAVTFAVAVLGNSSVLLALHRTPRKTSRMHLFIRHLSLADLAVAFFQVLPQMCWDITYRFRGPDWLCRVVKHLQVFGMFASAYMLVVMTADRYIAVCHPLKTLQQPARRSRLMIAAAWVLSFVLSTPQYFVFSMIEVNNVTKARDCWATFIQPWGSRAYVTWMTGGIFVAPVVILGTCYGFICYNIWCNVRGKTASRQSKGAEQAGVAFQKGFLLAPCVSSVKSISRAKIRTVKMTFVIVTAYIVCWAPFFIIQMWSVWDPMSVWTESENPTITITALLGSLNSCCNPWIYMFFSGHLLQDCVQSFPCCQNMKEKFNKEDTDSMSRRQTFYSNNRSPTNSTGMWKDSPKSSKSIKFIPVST
Sequence of PKBβ (P31751 whole entry, species assumed): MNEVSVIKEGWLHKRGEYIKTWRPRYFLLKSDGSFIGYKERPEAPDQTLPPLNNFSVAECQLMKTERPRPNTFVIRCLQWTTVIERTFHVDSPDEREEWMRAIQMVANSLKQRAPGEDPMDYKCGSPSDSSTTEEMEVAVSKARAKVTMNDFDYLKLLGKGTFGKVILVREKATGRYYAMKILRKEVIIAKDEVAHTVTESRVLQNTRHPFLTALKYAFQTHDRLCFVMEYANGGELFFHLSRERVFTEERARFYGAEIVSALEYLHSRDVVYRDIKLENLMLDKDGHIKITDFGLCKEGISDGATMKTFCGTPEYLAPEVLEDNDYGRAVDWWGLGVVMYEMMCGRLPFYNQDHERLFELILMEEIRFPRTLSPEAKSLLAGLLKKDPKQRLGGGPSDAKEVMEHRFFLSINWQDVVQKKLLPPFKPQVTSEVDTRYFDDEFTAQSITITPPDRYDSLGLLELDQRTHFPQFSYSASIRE
Sequence of JNK1α (P45983 whole entry): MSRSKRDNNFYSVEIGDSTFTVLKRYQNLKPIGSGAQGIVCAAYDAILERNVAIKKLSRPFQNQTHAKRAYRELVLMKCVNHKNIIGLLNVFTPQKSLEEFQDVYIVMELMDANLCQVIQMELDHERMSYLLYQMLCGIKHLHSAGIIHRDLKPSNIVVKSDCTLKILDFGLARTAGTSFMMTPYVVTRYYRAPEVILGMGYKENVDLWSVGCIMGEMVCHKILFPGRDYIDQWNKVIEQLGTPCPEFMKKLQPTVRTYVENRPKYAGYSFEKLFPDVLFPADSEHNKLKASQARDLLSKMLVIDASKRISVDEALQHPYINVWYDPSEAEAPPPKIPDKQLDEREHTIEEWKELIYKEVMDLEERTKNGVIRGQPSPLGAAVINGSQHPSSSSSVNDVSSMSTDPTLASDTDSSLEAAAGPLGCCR
Sequence of MAPK2 (P28482 whole entry): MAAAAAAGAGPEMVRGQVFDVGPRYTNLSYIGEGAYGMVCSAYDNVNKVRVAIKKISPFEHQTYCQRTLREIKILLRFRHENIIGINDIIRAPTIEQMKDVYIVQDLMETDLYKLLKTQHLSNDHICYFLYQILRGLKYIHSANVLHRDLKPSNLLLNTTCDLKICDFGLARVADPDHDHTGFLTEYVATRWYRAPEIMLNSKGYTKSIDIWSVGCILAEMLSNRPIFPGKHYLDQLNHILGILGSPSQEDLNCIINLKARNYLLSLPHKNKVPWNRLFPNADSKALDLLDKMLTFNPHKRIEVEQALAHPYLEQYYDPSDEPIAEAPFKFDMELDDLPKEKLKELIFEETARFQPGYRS
T1 sequence (P30556 whole entry): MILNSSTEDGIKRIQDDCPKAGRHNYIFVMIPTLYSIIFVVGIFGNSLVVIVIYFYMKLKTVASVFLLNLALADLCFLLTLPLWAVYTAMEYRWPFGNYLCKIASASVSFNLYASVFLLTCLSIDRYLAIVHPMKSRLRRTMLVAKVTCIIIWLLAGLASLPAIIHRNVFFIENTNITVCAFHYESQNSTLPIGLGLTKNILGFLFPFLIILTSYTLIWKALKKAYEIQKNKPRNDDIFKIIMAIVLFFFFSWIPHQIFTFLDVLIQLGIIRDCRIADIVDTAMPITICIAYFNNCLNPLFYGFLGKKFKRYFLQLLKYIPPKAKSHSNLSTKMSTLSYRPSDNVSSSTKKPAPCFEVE

For COc1cc2c(Nc3ccc(Cl)c(Cl)c3F)ncnc2cc1OC[C@@H]1C[C@@H]2CN(C)C[C@@H]2C1 [XL-647, N-(3,4-dichloro-2-fluorophenyl)-7-({[(3aR,5r,6aS)-2-methyloctahydrocyclopenta[c]pyrrol-5-yl]methyl}oxy)-6-(methyloxy)quinazolin-4-amine], which IC50 (EGFR WT (pCMV/Lx-1)) is on record?
The IC50 was 12 nM.

And the inhibition at 10 µM [1]?
Its inhibition at 10 µM is 6.85%.

And the “Inhibition, 10 μM XL-647” value [2]?
Its value is 46.77%.

What about the “Inhibition, 10 μM XL-647” value (Galanin, Non-Selective) of the same compound?
Its value is 1.57%.

And the inhibition at 10 µM [3]?
Its inhibition at 10 µM is 6.46%.

And the IC50 (PKBα)?
Its IC50 is greater than 10 µM.

And the IC50 (MAPK2)?
Its IC50 is greater than 1000 nM.

And the IC50 (JNK2α)?
The IC50 was greater than 1000 nM.

What about the IC50 (PKC-ξ) of the same compound?
The IC50 was greater than 10 µM.

What about the IC50 (CDK5) of the same compound?
The IC50 was greater than 1000 nM.

And the IC50 (JNK1α)?
The IC50 was greater than 1000 nM.

What about the IC50 (PKC-γ) of the same compound?
Its IC50 is greater than 10 µM.

And the IC50 (CSK)?
Its IC50 is 402 nM.

What about the IC50 (Rsk1) of the same compound?
Its IC50 is greater than 1000 nM.

What about the IC50 (PKBβ) of the same compound?
The IC50 was greater than 10 µM.

What about the IC50 (Clk2) of the same compound?
Its IC50 is greater than 10 µM.

What about the IC50 (CamKIV) of the same compound?
Its IC50 is greater than 1000 nM.

What about the IC50 (p70S6K; list in excess of 1 μM) of the same compound?
The IC50 was greater than 1 µM.

What about the IC50 (p70S6K; list in excess of 10 μM) of the same compound?
The IC50 was greater than 10 µM.

What about the IC50 [4] of the same compound?
Its IC50 is 2570 nM.

What about the “Inhibition, 10 μM XL-647” value ([4]; 10 μM) of the same compound?
The value was 97.91%.

And the inhibition at 10 µM (Vasopressin 1)?
The inhibition at 10 µM was 32.8%.

What about the “clinical benefit rate (PR+SD)” value ([5]; 38 evaluable) of the same compound?
Its value is 71%.

And the “subjects with PR” value ([5]; of 38 evaluable)?
Its value is 10 subjects.

What about the “subjects with SD lasting 3 months or more” value ([5]; of 38 evaluable) of the same compound?
Its value is 17 subjects.

And the inhibition at 10 µM (Endothelin, ET-B (Human))?
The inhibition at 10 µM was -13.6%.

And the inhibition at 10 µM (Angiotensin II, AT2)?
The inhibition at 10 µM was 16.6%.

And the “Phospho AKT Ser473 % Cells” value (Phospho AKT Ser473; 10 mg/kg)?
The value was 19 ± 2.1%.

What about the “Phospho AKT Ser473 % Reduction” value (Phospho AKT Ser473; 10 mg/kg) of the same compound?
The value was 53.6^a %.

And the “Phospho AKT Ser473 % Cells” value (Phospho AKT Ser473; 30 mg/kg)?
Its value is 12 ± 1.9%.

What about the “Phospho AKT Ser473 % Reduction” value (Phospho AKT Ser473; 30 mg/kg) of the same compound?
The value was 72.4^a %.

And the “Phospho AKT Ser473 % Cells” value (Phospho AKT Ser473; 100 mg/kg)?
The value was 11 ± 1.9%.

And the “Phospho AKT Ser473 % Reduction” value (Phospho AKT Ser473; 100 mg/kg)?
Its value is 74.4^a %.

And the IC50 (EGFR WT (pTet-On/Lx-1))?
The IC50 was 5 nM.

What about the “Inhibition, 10 μM XL-647” value (Opiate, Non-selective) of the same compound?
The value was 39.73%.
